From patent publication US20170112748A1, “N-ACYLPEPTIDE DERIVATIVES AND THEIR USES” (NeoStrata Company, Inc., priority 2012, published 2017) come the findings set out here.

The nature of assay [1]: topical treatment of chronic dermatoses with scaly skin and itch, clinical evaluation. Format: in vivo, human. The conditions noted are these: Example 11: subject. An excerpt: The subject topically applied twice daily a pentapeptide derivative, N-Ac-L-Ala-L-Leu-L-Lys-L-His-L-Arg-NH2 (SEQ ID NO: 51) 0.2% (w/v) in WEP442, pH 3.4, as prepared in Example 2. […] The treated skin had 80-90% improvement as judged by clinical evaluation.

Assay [2] can be described thus: summary of test results in volunteer subjects, efficacy grades. It counts as in vivo, human. The conditions noted are these: efficacy grade. The source says: Subject 1. Person had multiple red and itchy inflammation, dermatitis, or eczema lesions, which were resistant to conventional treatments including corticosteroids. Subject 2. Person had small red and itchy lesions which were resistant to topical corticosteroid treatment. Subject 3. Person had multiple red and itchy inflammation, dermatitis, or eczema lesions over the body for many years, which were resistant to conventional treatments including corticosteroids. Subject 4. Person had red and itchy inflammation, dermatitis, or eczema lesions for many years, which were resistant to topical corticosteroid treatment. Subject 5. Person had early stage of aging related skin changes on both forearms as indicated by age spots and wrinkled skin caused by solar damage. Subject 6. Person had age spots, keratoses and wrinkles on both forearms caused by intrinsic and extrinsic aging. Subject 7. Person had age spots, and wrinkles on both forearms caused by intrinsic and extrinsic aging. Subject 8. Person had osteoarthritis of both knees with inflammation and pain for more than 4 years, and had only mild transitory relief from conventional treatments. Subject 9. Person had sensitive skin with inflammatory lesions on the body. Subject 12. Person had dermatitis and inflammatory lesions on the left palm. Subject 14. Person had multiple age spots including lentigines and keratosis on their face. Subject 15. Person had psorisis Subject 16. Person had sensitive skin and eczema for more than 40 years
In another embodiment, the volunteer subject topically applied the test compositions containing N-acylpeptide derivatives of the present invention on involved skin or lesions once or twice daily for several weeks or until the involved lesions completely cleared and clinically changed to normal skin. As a control study, the subject also topically applied a vehicle control composition on the involved skin or lesions twice daily for the same period.
In yet another embodiment, the volunteer subject topically applied once or twice daily the test compositions containing N-acylpeptide derivatives of the present invention on the skin site above arthritic joints or painful muscles to provide therapeutic effects for the systemic disorders via topical administration.
In yet another embodiment, the volunteer subject injected intra-articularly into a knee joint a test composition containing a N-acylpeptide derivative of the present invention to improve and reduce arthritic inflammation and pain of the joint.
Some test results are summarized as follows.
DK: Disturbed keratinization AG: Aging related changes of skin, nail and hair DI: Deranged immune disorders and inflammation ND: Nerve disorders CA: Tumors and/or cancers

As to “N-Ac-L-Ala-L-Leu-L-Lys-L-His-L-Arg-NH2 (Ac-ALKHR-NH2)”, in assay [1] (0.2% (w/v) in WEP442 pH 3.4 topical), the itch result is listed as “stopped within a few minutes”. For the same substance, the “improvement as judged by clinical evaluation” value in assay [1] (right leg, 0.2% (w/v) in WEP442 pH 3.4 twice daily, 2 weeks) is 80-90%. Moreover, in assay [2], the “AG: Aging related changes of skin, nail and hair” value (“AG: Aging related changes of skin” for short) is on record as 3+ (3+: 75% Efficacy); the “DI: Deranged immune disorders and inflammation” value was 4+ (4+: 95-100% Efficacy); the “DK: Disturbed keratinization” value is recorded as 3+ (3+: 75% Efficacy); the “ND: Nerve disorders” value is on record as 3+ (3+: 75% Efficacy).
As for N-Ac-L-Arg-L-Arg-L-Arg-NH2, in assay [2], the “AG: Aging related changes of skin” value was 2+ (2+: 50% Efficacy); the “DI: Deranged immune disorders and inflammation” value is recorded as 2+ (2+: 50% Efficacy); the “DK: Disturbed keratinization” value is given as 2+ (2+: 50% Efficacy); the “ND: Nerve disorders” value is recorded as 2+ (2+: 50% Efficacy).
On to N-Ac-L-Ser-L-Ser-L-Ser-NH2, for which, in assay [2], the “AG: Aging related changes of skin” value was 2+ (2+: 50% Efficacy); the “DI: Deranged immune disorders and inflammation” value is reported as 2+ (2+: 50% Efficacy); the “DK: Disturbed keratinization” value was 2+ (2+: 50% Efficacy); the “ND: Nerve disorders” value is listed as 2+ (2+: 50% Efficacy).
Consider N-Ac-L-Val-L-Val-L-Ala-NH2, for which, in assay [2], the “AG: Aging related changes of skin” value is recorded as 2+ (2+: 50% Efficacy); the “DI: Deranged immune disorders and inflammation” value was 2+ (2+: 50% Efficacy); the “DK: Disturbed keratinization” value was 2+ (2+: 50% Efficacy); the “ND: Nerve disorders” value is given as 3+ (3+: 75% Efficacy).
In the case of “N-Bz-L-Ala-L-Leu-L-Lys-L-His-L-Arg-NH2 (ALKHR; HELM PEPTIDE1{[O=C(c1ccccc1)[*:2]].A.L.K.H.R.[am]}$$$$V2.0; SMILES CC(C)C[C@H](NC(=O)[C@H](C)NC(=O)c1ccccc1)C(=O)N[C@@H](CCCCN)C(=O)N[C@@H](Cc1c[nH]cn1)C(=O)N[C@@H](CCCNC(=N)N)C(N)=O)”, in assay [2], the “AG: Aging related changes of skin” value was 4+ (4+: 95-100% Efficacy); the “DI: Deranged immune disorders and inflammation” value is 3+ (3+: 75% Efficacy); the “DK: Disturbed keratinization” value is recorded as 3+ (3+: 75% Efficacy); the “ND: Nerve disorders” value was 2+ (2+: 50% Efficacy).
Regarding “N-Pr-L-Ala-L-Leu-L-Lys-L-His-L-Arg-NH2 (ALKHR; HELM PEPTIDE1{[CCC(=O)[*:2]].A.L.K.H.R.[am]}$$$$V2.0; SMILES CCC(=O)N[C@@H](C)C(=O)N[C@@H](CC(C)C)C(=O)N[C@@H](CCCCN)C(=O)N[C@@H](Cc1c[nH]cn1)C(=O)N[C@@H](CCCNC(=N)N)C(N)=O)”, in assay [2], the “AG: Aging related changes of skin” value is recorded as 2+ (2+: 50% Efficacy); the “DI: Deranged immune disorders and inflammation” value is recorded as 2+ (2+: 50% Efficacy); the “DK: Disturbed keratinization” value is listed as 2+ (2+: 50% Efficacy); the “ND: Nerve disorders” value is listed as 2+ (2+: 50% Efficacy).
